Assay results reported in patent US12037324B2, “Biarylmethyl heterocycles” (Université de Montréal, priority 2016, dated 2024).

How the values were obtained:
AGTR1 [1] = molecular target: T1, AGTR1 (Homo sapiens, UniProt P30556); assay: DiscoveRx β-arrestin2 recruitment assay (enzyme complementation, Pathunter CHO-K1 AGTR1 β-arrestin cell line); assay type: cell-based; settings: DiscoveRx β-arrestin2 recruitment; for DiscoveRx β-arrestin2 Ymax (%): maximal response
T1 construct: host or cells: Pathunter CHO-K1 AGTR1 β-arrestin cell line (CHO-K1)
T1 sequence (P30556 1-359): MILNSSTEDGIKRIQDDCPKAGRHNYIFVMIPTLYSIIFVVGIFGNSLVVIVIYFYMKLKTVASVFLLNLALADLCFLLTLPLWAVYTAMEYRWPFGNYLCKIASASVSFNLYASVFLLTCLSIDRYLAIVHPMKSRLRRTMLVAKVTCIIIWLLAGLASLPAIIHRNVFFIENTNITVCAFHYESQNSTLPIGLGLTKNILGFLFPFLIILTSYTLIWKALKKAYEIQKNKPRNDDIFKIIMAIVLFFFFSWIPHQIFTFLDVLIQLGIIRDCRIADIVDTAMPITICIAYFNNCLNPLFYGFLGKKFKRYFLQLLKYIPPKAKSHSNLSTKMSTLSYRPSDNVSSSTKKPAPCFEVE
How it was run: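 CHO-K1 cells expressing AGTR1 with β-arrestin2 enzyme-complementation reporter, plated 14-16 h ahead in 1% serum medium, then exposed to compounds for 90 min at 37° C. Chemiluminescence read after 1 h detection. EC50 (agonist) or IC50 (antagonist) from 4-parameter logistic fit; activity as percentage of All maximal effect.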

AGTR1 [2] = molecular target: T1, AGTR1; assay: DiscoveRx IP1 accumulation assay (HTRF), agonist mode, Pathunter CHO-K1 AGTR1 β-arrestin cell line; assay type: cell-based; settings: for EC50: read-out: IP-1 EC50
How it was run: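 Agonist mode in CHO-K1 AGTR1 β-arrestin cells plated 14-16 h before; compounds at varying concentrations for 90 min at 37° C, IP1 accumulation read by HTRF (D2-conjugate and anti-IP1 cryptate, 20 min room temperature). EC50 from 4-parameter logistic fit; activity given as percentage of maximal AII effect.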

hAT1R [3] = molecular target: T2, hAT1R (Homo sapiens, UniProt P30556); assay: cell-based
T2 sequence (P30556 1-359): T1 sequence (P30556 1-359)

hAT1R [4] = molecular target: T2, hAT1R; assay: cell-based; settings: agonist mode; for EC50: read-out: BRET P63 EC50
hAT1R [5] = molecular target: T2, hAT1R; assay: BRET β-arrestin2 biosensor assay, higher receptor expression (hAT1R 5 ng/well), HEK293 cells; assay type: cell-based; settings: for EC50: High AT1R Expression
[6] = Low AT1R Expression, read-out: BRET β-Arrestin2 Low AT1R Expression EC50
[7] = section of the 42nd table ending at r951, example numbering restarts after the DiscoveRx section, read-out: β-arrestin2 EC50

| Compound | EC50 (AGTR1 [1]) [nM] | DiscoveRx β-arrestin2 Ymax (%) (AGTR1 [1]) | IP-1 Ymax (%) (AGTR1 [2]) | EC50 (AGTR1 [2]) [nM] | BRET β-Arrestin2 Low AT1R Expression Ymax (%) (hAT1R [3]; Low AT1R Expression) | EC50 (hAT1R [3]; [6]) [nM] | BRET P63 Ymax (hAT1R [4]) [%] | EC50 (hAT1R [4]) [nM] | EC50 (hAT1R [3]; [7]) [nM] | BRET β-Arrestin2 High AT1R Expression Ymax (%) (hAT1R [5]) | EC50 (hAT1R [5]) [nM] |
| --- | --- | --- | --- | --- | --- | --- | --- | --- | --- | --- | --- |
| CCCC1=NC2(CCCC2)C(=O)N1Cc1ccc(-c2cc(-c3cc(C)ccn3)ccc2-c2nn[nH]n2)cc1 [Example 116, 3-((5′-(4-methylpyridin-2-yl)-2′-(2H-tetrazol-5-yl)-[1,1′-biphenyl]-4-yl)methyl)-2-propyl-1,3-diazaspiro[4.4]non-1-en-4-one] | 14.1 | 42.1 | 15.1 | 39.7 | 81.9 | 17.2 | 27.7 | 14.7 | – | – | – |
| CCOc1nc2cccc(C(=O)O)c2n1Cc1ccc(-c2cc(N3CCC[C@@H](C)C3)ccc2-c2noc(=O)[nH]2)cc1 [Example 325] | – | – | – | – | – | – | – | > 10000 | 201 | – | – |
| CCOc1nc2cccc(C(=O)O)c2n1Cc1ccc(-c2cc(-n3cc4ccccc4n3)ccc2-c2nn[nH]n2)cc1 [Example 341] | – | – | – | – | – | – | 18.8 | 4.4 | 12.2 | – | – |
| CCOc1nc2cccc(C(=O)O)c2n1Cc1ccc(-c2cc(OC3CCCCC3)ccc2-c2nn[nH]n2)cc1 [Example 343] | – | – | – | – | – | – | 15.3 | 26.7 | 26.2 | – | – |
| CCc1nc2c(C)cc(C)nc2n1Cc1ccc(-c2cc(-n3cncc3C)ccc2-c2nnn[nH]2)cc1 [Example 220] | – | – | – | – | – | – | 18.2 | 36.8 | 36 | – | – |
| CCOc1nc2cccc(C(=O)O)c2n1Cc1ccc(-c2cc(-c3cccc(C)n3)ccc2-c2noc(=O)[nH]2)cc1 [Example 304] | – | – | – | – | – | – | 17.3 | 29.7 | 38.3 | – | – |
| CCOc1nc2cccc(C(=O)O)c2n1Cc1ccc(-c2cc(-c3ccc(C)cn3)ccc2-c2noc(=O)[nH]2)cc1 [Example 300, 2-ethoxy-1-((5′-(5-methylpyridin-2-yl)-2′-(5-oxo-4,5-dihydro-1,2,4-oxadiazol-3-yl)-[1,1′-biphenyl]-4-yl)methyl)-1H-benzo[d]imidazole-7-carboxylic acid] | – | – | – | – | – | – | 25.1 | 9 | 12.8 | – | – |
| CCOc1nc2cccc(C(=O)O)c2n1Cc1ccc(-c2cc(-c3cc(OC)ccn3)ccc2-c2noc(=O)[nH]2)cc1 [Example 301] | – | – | – | – | – | – | 31.2 | 13.6 | 14.8 | – | – |
| CCCCC1=NC2(CCCC2)C(=O)N1Cc1ccc(-c2cc(-c3cccc(F)c3)ccc2-c2nn[nH]n2)cc1 [Example 127] | – | – | – | – | 29.5 | 17.3 | – | > 10000 | – | 82.7 | 23.6 |
| CC1=NC2(CCOC2)C(=O)N1Cc1ccc(-c2cc(-c3ccccc3)ccc2-c2nn[nH]n2)cc1 (single isomer, unassigned) [Example 174, 3-((6′-(2H-tetrazol-5-yl)-[1,1′:3′,1″-terphenyl]-4-yl)methyl)-2-methyl-7-oxa-1,3-diazaspiro[4.4]non-1-en-4-one] | – | – | – | – | – | – | 10.3 | 770 | 634 | – | – |
| CCOc1nc2cccc(C(=O)O)c2n1Cc1ccc(-c2cc(-n3ncc4ccccc43)ccc2-c2nn[nH]n2)cc1 [Example 342] | – | – | – | – | – | – | 16.5 | 3.3 | 3.6 | – | – |
| CCc1nc2c(C)cc(C)nc2n1Cc1ccc(-c2cc(-c3ncc(C)s3)ccc2-c2nn[nH]n2)cc1 [Example 68] | – | – | – | – | 91.1 | 15.3 | 41.7 | 15 | – | – | – |
| CCc1nc2c(C)cc(C)nc2n1Cc1ccc(-c2cc(-n3cnc(C)c3)ccc2-c2nnn[nH]2)cc1 [Example 221] | – | – | – | – | – | – | 5.4 | 28 | 159 | – | – |
| CCc1nc2c(C)cc(C)nc2n1Cc1ccc(-c2cc(Oc3cccc(F)n3)ccc2-c2nn[nH]n2)cc1 [Example 256] | – | – | – | – | – | – | 30.5 | 43 | 34.5 | – | – |
| CCc1nc2c(C)cc(C)nc2n1Cc1ccc(-c2cc(-c3cccnc3OC)ccc2-c2nn[nH]n2)cc1 [Example 24, 2-ethyl-3-((5′-(2-methoxypyridin-3-yl)-2′-(2H-tetrazol-5-yl)-[1,1′-biphenyl]-4-yl)methyl)-5,7-dimethyl-3H-imidazo[4,5-b]pyridine] | 13.4 | 24.1 | 14.5 | 20.7 | 21.6 | 13.9 | – | – | – | 73.1 | 13.5 |
| CCc1nc2c(C)cc(C)nc2n1Cc1ccc(-c2cc(-c3cccc(C)c3)ccc2C(=O)O)cc1 [Example 182] | 84.9 | 74.2 | 6.6 | 132 | – | – | – | – | 26.3 | 90.4 | 7 |
| CCc1nc2c(C)cc(C)nc2n1Cc1ccc(-c2cc(C(=O)c3ccccc3)ccc2-c2nnn[nH]2)cc1 [Example 210, (4′-((2-Ethyl-5,7-dimethyl-3H-imidazo[4,5-b]pyridin-3-yl)methyl)-6-(1H-tetrazol-5-yl)-[1,1′-biphenyl]-3-yl)(phenyl)methanone] | 8.6 | 48.4 | 14.8 | 82.7 | – | – | – | – | 28.4 | 88.2 | 9 |
| CCc1nc2c(C)cc(C)nc2n1Cc1ccc(-c2cc(-n3cc(C(F)(F)F)cn3)ccc2-c2nnn[nH]2)cc1 [Example 224] | – | – | – | – | – | – | 20.8 | 11.3 | 7.6 | – | – |
| CCc1nc2c(C)cc(C)nc2n1Cc1ccc(-c2cc(-c3cn(CC(F)F)nn3)ccc2-c2nnn[nH]2)cc1 [Example 242] | – | – | – | – | – | – | 45.6 | 41.6 | 28.2 | – | – |
| CCOc1nc2cccc(C(=O)O)c2n1Cc1ccc(-c2cc(-n3cc(C)cn3)ccc2-c2nn[nH]n2)cc1 [Example 340] | – | – | – | – | – | – | 17.3 | 2.9 | 5.8 | – | – |
| CCc1nc2c(C)cc(C)nc2n1Cc1ccc(-c2cc(Oc3cccnc3)ccc2-c2noc(=O)[nH]2)cc1 [Example 259] | 12.9 | 80.6 | 9.9 | 21.1 | – | – | – | – | 38.8 | 83.2 | 6.9 |
| CCOc1nc2cccc(C(=O)O)c2n1Cc1ccc(-c2cc(-c3cnccn3)ccc2-c2noc(=O)[nH]2)cc1 [Example 307] | – | – | – | – | – | – | – | > 10000 | 962 | – | – |
| CCc1nc2c(C)cc(C)nc2n1Cc1ccc(-c2cc(-c3ccc(C(=O)N(C)C)cc3)ccc2-c2nn[nH]n2)cc1 [Example 11] | 9.9 | 36.3 | 3.8 | 17.8 | 16.9 | 35.3 | – | – | – | 79.2 | 22 |
| CCCCC1=NC2(CCOC2)C(=O)N1Cc1ccc(-c2cc(-c3ccccc3F)ccc2-c2nnn[nH]2)cc1 (single isomer, unassigned) [Example 148] | 103 | 34.8 | 6.1 | – | 17.7 | 141 | – | – | – | 72.8 | 90.4 |
| CC1=NC2(CCOCC2)C(=O)N1Cc1ccc(-c2cc(-c3cc(C)ccn3)ccc2-c2nn[nH]n2)cc1 [Example 173, 2-methyl-3-((5′-(4-methylpyridin-2-yl)-2′-(2H-tetrazol-5-yl)-[1,1′-biphenyl]-4-yl)methyl)-8-oxa-1,3-diazaspiro[4.5]dec-1-en-4-one] | – | – | – | – | – | – | 19.3 | 79.1 | 80.4 | – | – |
| CCOc1nc2cccc(C(=O)O)c2n1Cc1ccc(-c2cc(-n3cc(C(C)C)nn3)ccc2-c2nn[nH]n2)cc1 [Example 344] | – | – | – | – | – | – | 10.4 | 16.8 | 767 | – | – |
| CCc1nc2c(C)cc(C)nc2n1Cc1ccc(-c2cc(N3CCC4(CCOC4)C3)ccc2-c2nn[nH]n2)cc1 (stereo not shown) [Example 92] | – | – | 51.1 | 1400 | 66.5 | 309 | 17.8 | 278 | – | – | – |
| CCCCc1nc(Cl)c(C(=O)O)n1Cc1ccc(-c2cc(Oc3cccnc3)ccc2-c2nn[nH]n2)cc1 [Example 428] | – | – | – | – | – | – | – | > 10000 | 122 | – | – |
| CCc1nc2c(C)cc(C)nc2n1Cc1ccc(-c2cc(-n3cc(C)c(C)n3)ccc2-c2nnn[nH]2)cc1 [Example 223] | – | – | – | – | – | – | 9.8 | 5.9 | 9.2 | – | – |
